In patent US8470333B2, “Chimeric peptides comprising HER-2 B-cell epitopes and T-helper epitopes” (The Ohio State University Research Foundation, priority 2005, dated 2013):
Positions of bridges follow the written chain, without caps; N, C: chain ends. No end group written: not given here.

Legend:
NT2.5 tumor cell line = test: NT2.5 tumor challenge in immunized FVB/n mice; assay type: in vivo, mouse; conditions: for doubling time: NT2.5 tumor in vaccinated FVB/N mice; for mean tumor volumes at day 30: FVB/n mice, 5×10^6 NT2.5 cells s.c. two weeks after final immunization, data not shown
Excerpt: (§1) The human EGFR disulfide pairings have been defined. Based on the high homology between EGFR and HER-2, the 628-647 epitope to 626-649 to incorporate two disulfide bonds between Cys-626 and Cys-634, and Cys-630 and Cys-642. Differential side chain protection and a specialized deprotection and oxidation successfully generated the cyclized product with a desired secondary structural characteristics as determined by CD measurements. […] Cyclized antibodies elicited twice the level of specific lysis compared to non-cyclized antibodies in an ADCC assay (11 and 5.6% respectively). To investigate the in vivo effect of these peptide vaccines, inbred FVB/N mice were immunized with the constructs. Both constructs were immunogenic in these mice with the cyclized construct generating higher titers. These mice were then challenged with the NT2.5 tumor cell line which has an FVB/N background.
To better understand the potential clinical benefit associated with introducing conformational constraints into B-cell epitope vaccines, both FVB/n and neu-N transgenic mice were challenged with the tumor cell line NT2.5 derived from a spontaneous mammary tumor isolated from a neu-N transgenic mouse. As a consequence of neu over-expression these mice develop spontaneous mammary adenocarcinomas in a manner similar to that observed in human breast cancer patients, and are therefore a suitable model for human breast cancer studies. […] (lower abdomen) two weeks after final immunization. Tumor measurements were taken twice weekly until day 55. Tumor volumes were calculated by the formula (long measurement×short measurement^2)/2. Note that after day 30 the tumors in FVB/n mice begin to regress, indicative of rejection of the tumor. With subsequent tumor studies using FVB/n mice, tumors were measured to day 30.

trastuzumab = test: ELISA binding of trastuzumab to peptides; conditions: FIG. 4
Method: The peptide sequences are given on the x-axis. MVF316-339 is an Her-2 irrelevant control peptide;
Microtiter wells were coated overnight with 2 μg/ml of various peptides and then blocked with 1% BSA for one hour. […] Values shown are the mean of duplicate samples. SEM are indicated by error bars.

FVB/n mice = test: Immunogenicity in FVB/n mice, antibody titers by direct ELISA; assay type: in vivo, mouse
Method: Groups of four to ten FVB/n mice were immunized with linear (NC) or disulfide-bonded (SS) peptide constructs (A) MVF563-598, (B) MVF585-598, (C) MVF597-626, or the linear peptide (D) MVF613-626. Each mouse is represented as an individual bar. Note that the scale in A is different then B-D;
Direct ELISAs were performed on sera from mice immunized with the cyclized (CYC) and linear (NC) constructs to determine differences in immunogenicity. Antibody titers against the corresponding immunogen were defined as the reciprocal of the highest dilution with absorbance ≧0.2. Each bar represents an individual mouse. Designation on the x-axis represents time at which sera was sampled, e.g. 1y+3 corresponds to serum collected three weeks after the first immunization. Neu-N mice have an FVB/n background and express normal rat neu proto-oncogene under control of a mammary-specific promoter. These mice show tolerance to neu relative to non-transgenic mice (Cancer Research 60, 3569).
Direct ELISA. U-bottom polyvinyl chloride plastic assay plates were coated with 100 μl of antigen at 2 μg/ml in PBS overnight at 4° C. Nonspecific binding sites were blocked for 1 hour with 200 μl PBS-1% BSA and plates were washed with PBT (phosphate-buffered saline containing 0.05% Tween 20 and 1% horse serum). Rabbit antiserum 1/500 or mouse antiserum 1/50 in PBT was added to antigen coated plates, serially diluted 1:2 in PBT, and incubated 2 hr at room temperature. After washing the plates, 50 μl of 1/500 goat anti-rabbit or goat anti-mouse IgG conjugated to horseradish peroxidase (Pierce Chemical Co.) was added to each well. Excess antibody conjugate was removed, and bound antibody was detected using 50 μl of 0.15% H2O2 in 24 mM citric acid, 5 mM sodium phosphate buffer, pH 5.2, with 0.5 mg/ml […] as the chromophore. Color development was allowed to proceed for 10 min and the reaction was stopped with 25 μl of 1% sodium dodecylsulfate. Absorbance was determined at 410 nm using a Dynatech MR700ELISA reader. Results are expressed as the mean absorbance of duplicate wells after subtraction of background.
The immunogenicity of the 4 constructs listed in Table 1 was determined using both the disulfide-bonded and linear constructs by immunizing groups of FVB/n mice (n=4-9) 6-8 weeks old. […] Three mice that received the cyclized form of 597-626 had titers above 120,000, while no mouse that received the linear form had titers above 120,000.

effector human PBMCs = test: IFN-γ release in the presence of effector human PBMCs; assay type: cell-based; conditions: antibodies against the construct
ADCC assay (Example 1) = assay type: cell-based; conditions: antibodies against the epitope
Excerpt: as §1

[1] = tested on: cells overexpressing HER-2; test: Anchorage-independent growth assay; assay type: cell-based; conditions: antibodies against the epitope
HER-2 protein = molecular target: T1, HER-2 protein (Homo sapiens, UniProt P04626); test: Flow cytometry binding of anti-peptide antibodies to HER-2 protein (Example 1); assay type: cell-based; conditions: antibodies against the epitope; flow cytometry binding to HER-2 protein
T1 construct: endogenous in cells; host or cells: SKBR3 or MCF-7 according to the general method
Method: Indirect Binding Assay. SKBR3 cells or MCF-7 cells were plated at 5,000 cells/well in V-bottom plates (Linbro, McLean Va.). The cells were incubated with various concentrations of antibodies. After being washed with Hank's Balanced Salts Solution (HBSS) the cells were incubated for one hour with fluorescein isothiocyanate (FITC)-conjugated goat anti-rabbit or goat anti-mouse antibody and fixed with formalin. A mouse monoclonal Ab (Oncogene Science, Cambridge, Mass.) was used as the positive control and an anti-CD3 Ab as the negative control. The cells were analyzed by a Coulter ELITE flow cytometer (Coulter, Hialeah, Fla.), which has an argon laser for excitation at 488 nm, and a 525 run band pass filter for FITC fluorescence 5.0×10^3 cells were counted for each sample and final processing was performed. Debris, cell clusters and dead cells were gated out by light scatted assessment before single parameter histograms were drawn.
The human EGFR disulfide pairings have been defined. Based on the high homology between EGFR and HER-2, the 628-647 epitope to 626-649 to incorporate two disulfide bonds between Cys-626 and Cys-634, and Cys-630 and Cys-642. Differential side chain protection and a specialized deprotection and oxidation successfully generated the cyclized product with a desired secondary structural characteristics as determined by CD measurements. […]

[2] = tested on: BT-474 human breast cancer cells (HER-2high); test: Flow cytometry of peptide antibodies with BT474 cells; assay type: cell-based
Method: Flow cytometry was used to assess whether antibodies from FVB/n mice induced by various constructs recognize native HER-2. BT-474 human breast cancer cells (HER-2high) were treated with 10 μg/mL of normal mouse Ig (negative control), mouse monoclonal Ab-2 (positive control), or peptide antibodies raised in FVB/n mice.
(§2) The reactivity of purified antibodies from immunized mouse sera was tested with (A) BT474 and (B) SKBR-3 breast cancer cell lines using flow cytometric analysis. Ab binding was detected with goat-anti mouse FITC-conjugated abs. The x-axis represents fluorescent intensity, and the y-axis represents relative cell number. Each histogram contains an overlay of mouse pre IgG, peptide antibodies, and AB2, a mouse mAb that binds HER-2.
(§3) Indirect Binding Assay. SKBR3 cells or MCF-7 cells were plated at 5,000 cells/well in V-bottom plates (Linbro, McLean Va.). The cells were incubated with various concentrations of antibodies. […] The cells were analyzed by a Coulter ELITE flow cytometer (Coulter, Hialeah, Fla.), which has an argon laser for excitation at 488 nm, and a 525 run band pass filter for FITC fluorescence 5.0×10^3 cells were counted for each sample and final processing was performed. […]

[3] = tested on: SKBR-3 breast cancer cell line; test: Flow cytometry of peptide antibodies with SKBR-3 cells; assay type: cell-based, human; conditions: purified antibodies from immunized mouse sera, FIG. 13
Method: as §2
Cell Culture. Stock cultures were maintained at 37° C. in a 5% CO2 incubator. All cell culture media, FCS, and supplements were purchased from GEBCO (Grand Island, N.Y.). The human breast adenocarcinoma cell lines SKBR-3 and MCF-7 were obtained from the American Type Culture Collection and was subcultured in McCoy's 5A or DMEM supplemented with 10% FCS and L-glutainine. Cav-1 was maintained in RPMI 1640 with 10% FCS and L-glutamine. […] SKBR3 is a breast tumor cell line which overexpresses the HER-2 protein while MCF-7 expresses the normal concentration of protein.
as §3, with “Va.).” for “Va.). The cells were incubated with various concentrations of antibodies.”

[4] = by day 33, compared to both unimmunized and MVF immunized mice

Q: For “KLLSLIKGVIVHRLEGVE [MVF control peptide, reference compound]”, which doubling time (NT2.5 tumor cell line) is on record?
A: 4.48 days

Q: With “KLLSLIKGVIVHRLEGVE-GPSL-CHPECQPQNGSVTCFGPEADQCVACAHYKDPPFCVA (KLLSLIKGVIVHRLEGVEGPSLCHPECQPQNGSVTCFGPEADQCVACAHYKDPPFCVA; disulfide (positions not given here)) [MVF 563 SS]” as the substance, how does the binding to trastuzumab (trastuzumab) read?
A: Maximum binding

Q: What about the immunogenicity (FVB/n mice; FVB/n mice, Example 3, FIG. 3) of the same substance?
A: highly immunogenic

Q: And the titers (FVB/n mice; two mice of the group, three weeks after the third immunization)?
A: above 250,000

Q: And the “mean tumor volumes at day 30” value (NT2.5 tumor cell line; listed as 563-598 SS)?
A: 173.7292 mm^3

Q: Which “mean tumor volumes at day 30” value (NT2.5 tumor cell line) does the source give for “KLLSLIKGVIVHRLEGVE-GPSL-CHPECQPQNGSVTCFGPEADQCVACAHYKDPPFCVA [563-598 NC]” here?
A: 166.517 mm^3

Q: Which IFN-γ release (effector human PBMCs) does the source give for “KLLSLIKGVIVHRLEGVE-GPSL-CPINCTHSCVDLDDKGCPAEQRAS [626-649 cyclized]” here?
A: able to elicit IFN-γ release

Q: What about the “higher levels of IFN-γ compared to the linear antibodies” value (effector human PBMCs) of the same substance?
A: 25%

Q: And the specific lysis (ADCC assay (Example 1))?
A: 11%

Q: And the immunogenicity (FVB/n mice; inbred FVB/N mice, Example 1)?
A: higher titers

Q: And the “inhibition (reduction of growth)” value [1]?
A: 31%

Q: What about the doubling time (NT2.5 tumor cell line) of the same substance?
A: 6.63 days

Q: And the tumor volume (NT2.5 tumor cell line; immunized FVB/N mice challenged with NT2.5, compared to linear and control MVF immunized mice)?
A: reduction in tumor volume

Q: And the mean log fluorescence (HER-2 protein)?
A: 2.29

Q: For “KLLSLIKGVIVHRLEGVE-GPSL-CPINCTHSCVDLDDKGCPAEQRAS [626-649 linear]”, which IFN-γ release (effector human PBMCs) is on record?
A: able to elicit IFN-γ release

Q: And the specific lysis (ADCC assay (Example 1))?
A: 5.6%

Q: And the immunogenicity (FVB/n mice; inbred FVB/N mice, Example 1)?
A: immunogenic

Q: And the “inhibition (reduction of growth)” value [1]?
A: 58%

Q: And the doubling time (NT2.5 tumor cell line)?
A: 4.31 days

Q: What about the mean log fluorescence (HER-2 protein) of the same substance?
A: 1.65

Q: For “KLLSLIKGVIVHRLEGVE-GPSL-IWKFPDEEGACQPL (KLLSLIKGVIVHRLEGVEGPSLIWKFPDEEGACQPL) [MVF 613]”, which “shift in flow cytometry” value ([2]; FVB/n purified antibodies, FIG. 5) is on record?
A: shifted relative to normal mouse antibodies

Q: And the “recognition of HER-2” value ([2]; purified antibodies from immunized mouse sera, FIG. 13)?
A: recognize HER-2

Q: And the “recognition of HER-2” value [3]?
A: recognize HER-2

Q: And the immunogenicity (FVB/n mice; FVB/n mice, Example 3, FIG. 3)?
A: highly immunogenic

Q: And the tumor volume (NT2.5 tumor cell line; [4])?
A: reduction in tumor volume

Q: Which “tumor development and growth” value (NT2.5 tumor cell line; wild-type FVB/n mice, 3×106 NT2.5 cells s.c., 24 days, compared to MVF immunized mice only) does the source give for “KLLSLIKGVIVHRLEGVE-GPSL-LHCPALVTYNTDTFESMPNPEGRYTFGASCV (KLLSLIKGVIVHRLEGVEGPSLLHCPALVTYNTDTFESMPNPEGRYTFGASCV; also: cyclized) [MVF 266 CYC]” here?
A: delayed tumor development (A) and growth (B)

Q: With “KLLSLIKGVIVHRLEGVE-GPSL-VACAHYKDPPFCVA (KLLSLIKGVIVHRLEGVEGPSLVACAHYKDPPFCVA; disulfide 25-34 (inferred)) [MVF 585 SS]” as the substance, how does the tumor volume (NT2.5 tumor cell line; [4]) read?
A: reduction in tumor volume

Q: Which titers (FVB/n mice; no mouse of the group above this value) does the source give for “KLLSLIKGVIVHRLEGVE-GPSL-VARCPSGVKPDLSYMPIWKFPDEEGACQPL [597-626 linear]” here?
A: ≤ 120,000
